Assay results as given in patent publication US10111437B2, “Substituted guanidines as fungicides” (Nippon Soda Co., Ltd., priority 2015, dated 2018).

Assays:
[1] = system: wheat leaf rust fungus (Puccinia recondita); experiment: Wheat leaf rust control test (foliar spray on wheat seedlings); assay type: in vivo; settings: 240 h, 125 ppm active ingredient, sprayed on wheat seedlings (variety Norin 61) before inoculation, 10 days, vs untreated
[2] = system: Apple scab fungus (Venturia inaequalis); experiment: Apple scab control test (foliar spray on apple seedlings); assay type: in vivo; settings: 125 ppm active ingredient, sprayed on apple seedlings (variety Orin) before inoculation, vs untreated
Method: The dilution was sprayed to apple seedlings (variety “Orin”, 3 to 4 leaf stage) grown in clay pots. […] The control value was calculated by the following equation. [formula]

[3] = system: cucumber gray mold fungus (Botrytis cinerea); experiment: Cucumber gray mold control test (foliar spray on cucumber seedlings); settings: in Cucumis sativus, 96 h, read-out: control value
[4] = system: Tomato late blight fungus (Phytophthora infestans); experiment: whole plant or invertebrate; assay type: in vivo; settings: foliar, 96 h, read-out: control value

N=C(N)NCCCCCCCCNC(=N)NCc1ccc(C2=NCCCN2)cc1 [compound 262]
pest or weed control at 125 ppm [1]: ≥ 75%
pest or weed control at 125 ppm [2]: ≥ 75%
pest or weed control at 125 ppm [3]: ≥ 75%

N=C(N)NCCCCCCCCNC(=N)NCCCc1ccc(C2=NCCCN2)cc1 [compound 252]
pest or weed control at 125 ppm [1]: ≥ 75%
pest or weed control at 125 ppm [4]: ≥ 75%
pest or weed control at 125 ppm [3]: ≥ 75%

N=C(N)NCCCCCCCCCNC(=N)NCCCOc1ccc(C2=NCCCN2)cc1 [compound 218]
pest or weed control at 125 ppm [1]: ≥ 75%
pest or weed control at 125 ppm [4]: ≥ 75%
pest or weed control at 125 ppm [3]: ≥ 75%

N=C(N)NCCCCCCCNC(=N)NCCOCc1ccc(C2=NCCCN2)cc1 [compound 238]
pest or weed control at 125 ppm [1]: ≥ 75%
pest or weed control at 125 ppm [2]: ≥ 75%
pest or weed control at 125 ppm [3]: ≥ 75%

N=C(N)NCCCCCCCNC(=N)NCCOCc1cc(C(=N)N)cs1 [compound 48, 5-[2-[[N-(7-guanidinoheptyl)carbamimidoyl]amino]ethoxymethyl]thiophene-3-carboxamidine]
pest or weed control at 125 ppm [1]: ≥ 75%
pest or weed control at 125 ppm [2]: ≥ 75%
pest or weed control at 125 ppm [3]: ≥ 75%

N=C(N)NCCCCCCCNC(=N)NCCOc1ccc(C(=N)N)cc1 [compound 236]
pest or weed control at 125 ppm [1]: ≥ 75%
pest or weed control at 125 ppm [2]: ≥ 75%
pest or weed control at 125 ppm [3]: ≥ 75%

CN(CCCOc1ccc(C(=N)N)cc1)C(=N)NCCCOc1ccc(C(=N)N)cc1 [compound 72]
pest or weed control at 125 ppm [1]: ≥ 75%
pest or weed control at 125 ppm [2]: ≥ 75%
pest or weed control at 125 ppm [3]: ≥ 75%

N=C(N)NCCCCCCCCNC(=N)NCCOc1ccc(C(=N)N)cc1 [compound 286]
pest or weed control at 125 ppm [1]: ≥ 75%
pest or weed control at 125 ppm [3]: ≥ 75%

N=C(N)NCCCCCCCCn1ccn(CCOc2ccc(C(=N)N)cc2)c1=N [compound 281]
pest or weed control at 125 ppm [1]: ≥ 75%
pest or weed control at 125 ppm [4]: ≥ 75%
pest or weed control at 125 ppm [3]: ≥ 75%

N=C(N)NCCCCCCCCNC(=N)NCCCCOc1ccc(C2=NCCCN2)cc1 [compound 204]
pest or weed control at 125 ppm [1]: ≥ 75%
pest or weed control at 125 ppm [4]: ≥ 75%
pest or weed control at 125 ppm [3]: ≥ 75%

N=C(N)NCCCCCCNC(=N)NCCCOc1ccc(C(=N)N)cc1 [compound 134]
pest or weed control at 125 ppm [4]: ≥ 75%
pest or weed control at 125 ppm [2]: ≥ 75%
pest or weed control at 125 ppm [3]: ≥ 75%

N=C(N)c1ccc(OCCCCCn2ccn(CCCCCOc3ccc(C(=N)N)cc3)c2=N)cc1 [compound 88]
pest or weed control at 125 ppm [4]: ≥ 75%
pest or weed control at 125 ppm [2]: ≥ 75%
pest or weed control at 125 ppm [3]: ≥ 75%

N=C(NCCCc1cc2cc(C(=N)N)ccc2o1)NCCCc1cc2cc(C(=N)N)ccc2o1 [compound 80]
pest or weed control at 125 ppm [4]: ≥ 75%
pest or weed control at 125 ppm [2]: ≥ 75%
pest or weed control at 125 ppm [3]: ≥ 75%

N=C(N)NCCCCCCCNC(=N)NCCCC#Cc1nc(C(=N)N)cs1 [compound 50, 2-[5-[[N-(7-guanidinoheptyl)carbamimidoyl]amino]pent-1-ynyl]thiazole-4-carboxamidine]
pest or weed control at 125 ppm [1]: ≥ 75%
pest or weed control at 125 ppm [2]: ≥ 75%
pest or weed control at 125 ppm [3]: ≥ 75%

N=C(N)NCCCCCCCCNC(=N)NCCCc1cc2cc(C3=NCCCN3)ccc2o1 [compound 260]
pest or weed control at 125 ppm [1]: ≥ 75%
pest or weed control at 125 ppm [4]: ≥ 75%
pest or weed control at 125 ppm [3]: ≥ 75%

N=C(N)NCCCCCCCNC(=N)NCCCOc1ccc(C2=NCCCN2)cc1 [compound 190]
pest or weed control at 125 ppm [4]: ≥ 75%
pest or weed control at 125 ppm [2]: ≥ 75%
pest or weed control at 125 ppm [3]: ≥ 75%

CNC(=N)c1ccc(OCCCn2ccn(CCCOc3ccc(C(=N)NC)cc3)c2=N)cc1 [compound 116]
pest or weed control at 125 ppm [4]: ≥ 75%
pest or weed control at 125 ppm [2]: ≥ 75%
pest or weed control at 125 ppm [3]: ≥ 75%

Cc1c(C)n(CCCCOc2ccc(C(=N)N)cc2)c(=N)n1CCCCOc1ccc(C(=N)N)cc1 [compound 105]
pest or weed control at 125 ppm [4]: ≥ 75%
pest or weed control at 125 ppm [2]: ≥ 75%
pest or weed control at 125 ppm [3]: ≥ 75%

N=C(N)NCCCCCCCCNC(=N)NCCCCCOc1ccc(C2=NCCCN2)cc1 [compound 248]
pest or weed control at 125 ppm [1]: ≥ 75%
pest or weed control at 125 ppm [4]: ≥ 75%
pest or weed control at 125 ppm [3]: ≥ 75%

N=C(N)c1ccc(OCCCn2cc(-c3ccccc3)n(CCCOc3ccc(C(=N)N)cc3)c2=N)cc1 [compound 149]
pest or weed control at 125 ppm [4]: ≥ 75%
pest or weed control at 125 ppm [2]: ≥ 75%
pest or weed control at 125 ppm [3]: ≥ 75%

Cc1cc(C(=N)N)ccc1OCCCCNC(=N)NCCCCOc1ccc(C(=N)N)cc1C [compound 84]
pest or weed control at 125 ppm [4]: ≥ 75%
pest or weed control at 125 ppm [2]: ≥ 75%
pest or weed control at 125 ppm [3]: ≥ 75%

N=C(N)NCCCCCCCCn1ccn(CCCCOc2ccc(C3=NCCCN3)cc2)c1=N [compound 210]
pest or weed control at 125 ppm [4]: ≥ 75%
pest or weed control at 125 ppm [2]: ≥ 75%
pest or weed control at 125 ppm [3]: ≥ 75%

N=C(N)NCCCCCCCNC(=N)NCCCCOc1ccc(C2=NCCN2)cc1 [compound 244]
pest or weed control at 125 ppm [1]: ≥ 75%
pest or weed control at 125 ppm [2]: ≥ 75%
pest or weed control at 125 ppm [3]: ≥ 75%

N=C(NCCCCOc1ccc(C(=N)N)cc1)NCCCc1cc2cc(C(=N)N)ccc2o1 [compound 196]
pest or weed control at 125 ppm [4]: ≥ 75%
pest or weed control at 125 ppm [2]: ≥ 75%
pest or weed control at 125 ppm [3]: ≥ 75%

N=C(NCCCCOc1ccc(C(=N)N)cc1Cl)NCCCCOc1ccc(C(=N)N)cc1Cl [compound 86]
pest or weed control at 125 ppm [4]: ≥ 75%
pest or weed control at 125 ppm [2]: ≥ 75%
pest or weed control at 125 ppm [3]: ≥ 75%

N=C(N)NCCCCCNC(=N)NCCCCOc1ccc(C(=N)N)cc1 [compound 59]
pest or weed control at 125 ppm [1]: ≥ 75%
pest or weed control at 125 ppm [2]: ≥ 75%
pest or weed control at 125 ppm [3]: ≥ 75%

N=C(N)NCCCCCCCCNC(=N)NCC1=CC2C=C(C3=NCCCN3)C=CC2O1 (stereo not drawn) [compound 268]
pest or weed control at 125 ppm [1]: ≥ 75%
pest or weed control at 125 ppm [4]: ≥ 75%
pest or weed control at 125 ppm [3]: ≥ 75%

N=C(N)c1ccc(OCCCn2ccn(CCCOc3ccc(C(=N)N)cc3Cl)c2=N)c(Cl)c1 [compound 99]
pest or weed control at 125 ppm [4]: ≥ 75%
pest or weed control at 125 ppm [2]: ≥ 75%
pest or weed control at 125 ppm [3]: ≥ 75%

N=C(N)NCCCCCCCNC(=N)NCCCCOc1ccc(C(=N)N)cc1 [compound 16, 4-[4-[[N-(7-guanidinoheptyl)carbamimidoyl]amino]butoxy]benzamidine]
pest or weed control at 125 ppm [1]: ≥ 75%

N=C(N)NCCCCCCCCCn1ccn(CCCCOc2ccc(C3=NCCCN3)cc2)c1=N [compound 212]
pest or weed control at 125 ppm [4]: ≥ 75%
pest or weed control at 125 ppm [2]: ≥ 75%
pest or weed control at 125 ppm [3]: ≥ 75%

N=C(N)NCCCCCCCCNC(=N)NCCCOCc1ccc(C2=NCCCN2)cn1 [compound 250]
pest or weed control at 125 ppm [4]: ≥ 75%
pest or weed control at 125 ppm [2]: ≥ 75%
pest or weed control at 125 ppm [3]: ≥ 75%

CC1(C)CN=C(c2ccc(OCCCCNC(=N)NCCCCCCCCNC(=N)N)cc2)NC1 [compound 258]
pest or weed control at 125 ppm [1]: ≥ 75%
pest or weed control at 125 ppm [4]: ≥ 75%
pest or weed control at 125 ppm [3]: ≥ 75%

N=C(N)c1ccc(OCCCCn2ccn(CCCCOc3ccc(C(=N)N)cc3)c2=N)cc1 [compound 36, 4-[4-[3-[4-(4-carbamimidoylphenoxy)butyl]-2-imino-imidazol-1-yl]butoxy]benzamidine]
pest or weed control at 125 ppm [4]: ≥ 75%
pest or weed control at 125 ppm [2]: ≥ 75%
pest or weed control at 125 ppm [3]: ≥ 75%

N=C(N)NCCCCCCCCn1ccn(CCCCOc2ccc(C(=N)N)cc2)c1=N [compound 216]
pest or weed control at 125 ppm [1]: ≥ 75%
pest or weed control at 125 ppm [4]: ≥ 75%
pest or weed control at 125 ppm [3]: ≥ 75%
